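48-hour exposure; five concentrations; linearly interpolated endpoints. GI50 = concentration required for 50% inhibition of growth.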 Calls of active or inactive are those of the source. Rule as the data show it: active = GI50 up to about 1.1 µM and inactive = higher.
Columns and labels:
Assay in all cases: DTP human tumour cell line panel, 48 h
ACHN = system: ACHN
HL-60 = system: HL-60
K562 = system: K562
KM12 = system: KM12
LOX IMVI = system: LOX IMVI
LXFL 529 = system: LXFL 529
Malme-3M = system: Malme-3M
OVCAR-3 = system: OVCAR-3
SF-539 = system: SF-539
SK-MEL-5 = system: SK-MEL-5
SK-OV-3 = system: SK-OV-3
SN12C = system: SN12C
SNB-19 = system: SNB-19
SNB-75 = system: SNB-75
TK-10 = system: TK-10
UO-31 = system: UO-31

Measured: GI50

CC1=NOC(=O)/C1=C/c1cccc2ccccc12
inactive: ACHN > 100 µM | HL-60 > 100 µM | K562 > 100 µM | KM12 > 100 µM | LOX IMVI > 100 µM | LXFL 529 > 100 µM | Malme-3M > 100 µM | OVCAR-3 > 100 µM | SF-539 > 100 µM | SK-MEL-5 > 100 µM | SK-OV-3 > 100 µM | SN12C > 100 µM | SNB-19 > 100 µM | SNB-75 > 100 µM | TK-10 > 100 µM | UO-31 > 100 µM

Cc1ccccc1NC(=O)C(=O)CC(=O)C1CCOC1=O (configuration not stated)
inactive: ACHN > 100 µM | HL-60 > 100 µM | K562 > 100 µM | KM12 > 100 µM | LOX IMVI > 100 µM | LXFL 529 > 100 µM | Malme-3M > 100 µM | OVCAR-3 > 100 µM | SF-539 > 100 µM | SK-MEL-5 > 100 µM | SK-OV-3 > 100 µM | SN12C > 100 µM | SNB-19 > 100 µM | SNB-75 > 100 µM | TK-10 > 100 µM | UO-31 > 100 µM

O=C1OCC/C1=N/O
inactive: ACHN > 100 µM | HL-60 > 100 µM | K562 > 100 µM | KM12 > 100 µM | LXFL 529 > 100 µM | Malme-3M > 100 µM | OVCAR-3 > 100 µM | SF-539 > 100 µM | SK-MEL-5 > 100 µM | SK-OV-3 > 100 µM | SN12C > 100 µM | SNB-75 > 100 µM | TK-10 > 100 µM | UO-31 > 100 µM

COc1ccc(/C=C(\NC(=O)c2ccccc2)c2nc3ccccc3[nH]2)cc1OC
inactive: ACHN > 100 µM | HL-60 > 100 µM | K562 > 100 µM | KM12 > 100 µM | LOX IMVI > 100 µM | LXFL 529 76 µM | Malme-3M > 100 µM | OVCAR-3 > 100 µM | SF-539 > 100 µM | SK-MEL-5 > 100 µM | SK-OV-3 > 100 µM | SN12C > 100 µM | SNB-19 > 100 µM | SNB-75 > 100 µM | TK-10 > 100 µM | UO-31 99.3 µM

CCOC(=O)/C(=C\c1ccc(N(CCC#N)CCC#N)cc1C)NC(=O)/C=C/c1ccccc1
inactive: ACHN > 100 µM | HL-60 > 100 µM | K562 > 100 µM | KM12 > 100 µM | LOX IMVI > 100 µM | LXFL 529 > 100 µM | Malme-3M > 100 µM | OVCAR-3 > 100 µM | SF-539 > 100 µM | SK-MEL-5 > 100 µM | SK-OV-3 > 100 µM | SN12C > 100 µM | SNB-19 > 100 µM | SNB-75 > 100 µM | TK-10 > 100 µM | UO-31 > 100 µM

O=C1OC2C(O)COC2(O)C1(O)Cc1c[nH]c2ccccc12 (configuration not stated)
inactive: HL-60 > 100 µM | K562 > 100 µM | KM12 > 100 µM | LOX IMVI > 100 µM | LXFL 529 > 100 µM | Malme-3M > 100 µM | OVCAR-3 > 100 µM | SF-539 > 100 µM | SK-MEL-5 > 100 µM | SK-OV-3 > 100 µM | SN12C > 100 µM | SNB-19 > 100 µM | SNB-75 > 100 µM | TK-10 > 100 µM | UO-31 > 100 µM

Cn1ncc2c(Nc3ccc(Cl)cc3)c3ccccc3nc21
inactive: ACHN 17 µM | HL-60 23.4 µM | K562 16.2 µM | KM12 18.7 µM | LOX IMVI 15.1 µM | LXFL 529 18.6 µM | Malme-3M 20.2 µM | OVCAR-3 18.7 µM | SF-539 15.6 µM | SK-MEL-5 13.6 µM | SK-OV-3 20.5 µM | SN12C 16 µM | SNB-19 18 µM | SNB-75 10.8 µM | TK-10 21.4 µM | UO-31 > 10 µM

COc1ccc(Nc2nc3ccc(C(F)(F)F)cc3nc2-c2ccccc2)cc1OC
inactive: ACHN 28.6 µM | HL-60 36.1 µM | K562 31.4 µM | KM12 21.5 µM | LOX IMVI 16.1 µM | LXFL 529 43.2 µM | Malme-3M 51.9 µM | OVCAR-3 54.7 µM | SF-539 42.6 µM | SK-MEL-5 35.8 µM | SK-OV-3 > 100 µM | SN12C 38 µM | SNB-75 > 100 µM | TK-10 > 10 µM | UO-31 15.5 µM

COC(=O)/C(C#N)=C1\NC(=O)c2ccccc21
inactive: ACHN > 100 µM | HL-60 > 100 µM | K562 > 100 µM | KM12 > 100 µM | LOX IMVI > 100 µM | LXFL 529 > 100 µM | Malme-3M > 100 µM | OVCAR-3 > 100 µM | SF-539 > 100 µM | SK-MEL-5 > 100 µM | SK-OV-3 > 100 µM | SN12C > 100 µM | SNB-19 > 100 µM | SNB-75 2.4 µM | TK-10 > 100 µM | UO-31 > 100 µM

COC(=O)c1nc(NN)cc(O)c1CCCCCc1c(O)nc(NN)nc1C(=O)OC
inactive: ACHN > 100 µM | HL-60 > 100 µM | K562 > 100 µM | KM12 > 100 µM | LOX IMVI > 100 µM | LXFL 529 > 100 µM | Malme-3M > 100 µM | OVCAR-3 > 100 µM | SF-539 > 100 µM | SK-MEL-5 > 100 µM | SK-OV-3 > 100 µM | SN12C > 100 µM | SNB-19 > 100 µM | SNB-75 > 100 µM | TK-10 > 100 µM | UO-31 > 100 µM

CC(C)=CC(=O)CC(=O)C(=O)Nc1ccc(Cl)c(Cl)c1
inactive: ACHN > 100 µM | HL-60 > 100 µM | K562 > 100 µM | KM12 > 100 µM | LXFL 529 > 100 µM | Malme-3M > 100 µM | OVCAR-3 > 100 µM | SF-539 > 100 µM | SK-OV-3 > 100 µM | SN12C > 100 µM | SNB-19 > 100 µM | SNB-75 > 100 µM | TK-10 > 100 µM | UO-31 > 100 µM

Clc1cccc(Cl)c1C1SCc2nc3ccccc3n21 (configuration not stated)
inactive: ACHN > 100 µM | HL-60 3.97 µM | K562 10.7 µM | KM12 > 100 µM | LOX IMVI > 100 µM | LXFL 529 > 100 µM | Malme-3M > 100 µM | OVCAR-3 > 100 µM | SF-539 > 100 µM | SK-MEL-5 9.04 µM | SK-OV-3 > 100 µM | SN12C > 100 µM | SNB-19 > 100 µM | SNB-75 88.3 µM | TK-10 > 100 µM | UO-31 > 100 µM

Cn1cnc([N+](=O)[O-])c1Sc1nc2ccccc2[nH]1
inactive: ACHN 22.8 µM | HL-60 9.29 µM | K562 20.3 µM | KM12 19.5 µM | LOX IMVI 22.7 µM | LXFL 529 6.67 µM | Malme-3M 16.3 µM | OVCAR-3 31.9 µM | SF-539 14.2 µM | SK-MEL-5 13.1 µM | SK-OV-3 21.7 µM | SN12C 14.7 µM | SNB-19 > 10 µM | SNB-75 18.4 µM | TK-10 19.3 µM | UO-31 19.9 µM

From ChEMBL document CHEMBL1201862, “PubChem BioAssay data set” (2004)
